From PMC10354055, “An optimized Nurr1 agonist provides disease-modifying effects in Parkinson’s disease models” (Nature Communications, 2023)
Several values for one entry are separate records, joined by “and”; a condition that tells them apart may be missing. Identical values can stand only once.

Key:
N27-A cells = experiment: Lysosomal pH detection, LysoSensor, N27-A cells; assay type: cell-based, rat; conditions: for Lysosomal pH: Figure 3d, individual replicates
Method: Lysosomal pH was detected as previously described. Briefly, after incubation in EBSS containing BafA1 (10 nM), CQ (20 µM), or 4A7C-301 (1 µM) for 6 h, HeLa and N27-A cells were treated with LysoSensor™ Yellow/Blue DND-160 (5 µM; Life Technology) for 45 min, followed by 2 washes in HEPES buffer (Gibco). Fluorescence images at excitation/emission wavelengths of 360/460 nm and 470/525 nm were taken immediately using a 400 nm dichroic mirror (KEYENCE). The ratio of fluorescence intensities (F360/470) were measured and calculated manually using ImageJ for each cell. The average pH from measuring 5 cells from each of three wells for each treatment group in both HeLa and N27-A cells was calculated by fitting the F360/470 values to a plotted pH calibration curve with KCl/NaCl buffered from pH 3.5 to 7.0 using GraphPad Prism (Version 8.0.2).

[1] = test system: AAV-αSyn-induced male mice; experiment: IHC/stereology of TH+ and NeuN+ neurons and TH+ fibers, AAV-αSyn-induced mice; assay type: in vivo, mouse; conditions: for loss of TH+ and NeuN+ neurons and TH+ fibers (in words): αSynWT-mice
Excerpt: (§1) Adeno-associated viruses (AAVs) expressing GFP only or αSyn (wild-type or A53T) were kindly provided by Dr. Yoon Seong Kim from the University of Central Florida. Recombinant AAV vectors were produced using modified pAAV-IRES-hrGFP (Agilent) to express wild-type and mutant human αSyn under control of the CMV promoter. Viral particles (AAV2) were produced at the University of Iowa Viral Vector Core according to standard operating procedures (https://medicine.uiowa.edu/vectorcore/). […] AAV vectors were delivered into the substantia nigra unilaterally by stereotaxic surgery.
(§2) Images were acquired using a KEYENCE microscope and quantified as the number or optical density of immunoreactive cells using ImageJ software.
(§3) The numbers of TH^+ DA neurons, NeuN^+ neurons, pS129 αSyn^+ cells in the SN and Iba-1^+ microglia in the SN and striatum were stereologically counted in six coronal sections (30 µm thickness) taken every 6th section (180 µm intervals) for each brain. The boundaries of the SN and striatum were delimited at low magnification (4X) to estimate each total area. Immunoreactive cells were counted with images taken at high magnification (×40) by a single blinded investigator. The group mean of the total number of immunoreactive cells from each brain was transformed as percentage of the number in the control group (%). For AAV-αSyn-induced mice, the group mean of the total number of cells in the ipsilateral side was transformed as a percentage of that observed in the contralateral side.

[2] = test system: AAV-αSyn-induced male mice; experiment: pS129 αSyn+ cells in SNpc, AAV-αSyn-induced mice; assay type: in vivo, mouse
Excerpt: as §1, §2, §3

MN9D cells = experiment: Cytotoxicity, LDH release, MPP+-treated MN9D cells; assay type: cell-based, mouse
Method: Cells were transfected with Nurr1 subcloned into pcDNA3.1 vector[23] for Nurr1 overexpression (OE). […] Nurr1 OE or KD by transfection was analyzed by Western blot.
Cellular oxidative stress was detected using the DCFDA Cellular ROS Assay Kit (Abcam) according to the manufacturer’s protocol. Briefly, cells seeded in black clear bottom 96 well plate were stained with DCFDA solution (20 µM) for 45 min at 37 °C. […] Cytotoxicity was determined by measuring lactate dehydrogenase (LDH) release into the culture medium using a LDH cytotoxicity detection kit (Roche)[33]. Absorbance was measured at 490 nm with a microplate reader and cytotoxicity was calculated as a percentage (%) relative to 1% TritonX-100 control. Cell viability was determined using 3-(4,5-dimethylthiazol-2-yl)-2,5-diphenyltetrazolium bromide (MTT) as previously described. Briefly, cells were incubated with 5 mg/ml of MTT (Sigma-Aldrich) solution for 3.5 h at 37 °C. MTT formazan crystals were dissolved in 10 times the volume of MTT solvent (4 mM HCl and 0.1% Nonidet P-40 in isopropanol) and the absorbance from the generated blue formazan was measured at 570 nm after 15 min incubation at room temperature. Cell viability was calculated as a percentage (%) of MTT reduction relative to vehicle control.

MPTP-induced male mice = experiment: IHC of Iba-1+ microglia in STR and SNpc, MPTP-induced mice; assay type: in vivo, mouse; conditions: for Iba-1+ cells in STR (% of control): Figure 4m; for Iba-1+ cells in STR (% of control) / Iba-1+ cells in SNpc (% of control): MPTP-induced mice, individual animal values; for Iba-1+ cells in SNpc (% of control): Figure 4n
Method: MPTP (Sigma-Aldrich) was intraperitoneally (i.p.) injected (30 mg/kg) for 5 days (Day 1-5). […] To test dyskinetic involuntary behavior, an L-DOPA injected group was included, which received 50 mg/kg of L-DOPA and 15 mg/kg of benserazide (Sigma-Aldrich) (i.p.) for 16 days (Day 1–16). All compounds were administered 6 h post-MPTP injection to avoid any effect of compounds on the MPTP metabolism in the brain. Motor and non-motor related behavior tests were performed on the following days as described in Fig. 4a in an assessor- and observer-blinded fashion. Pre-training and baseline setup for motor-related behaviors were performed 3 days prior to the injections. Mice were sacrificed and subjected to immunohistochemistry. Mice were housed at the Animal Care Facilities of McLean Hospital under a 12-h light/12-h dark cycle, ambient temperature and humidity. Animals were handled in accordance with McLean Hospital’s Institutional Animal Care and Use Committee (Protocol #: 2015N000002) and followed National Institutes of Health guidelines.
as §2, §3

[3] = test system: AAV-αSyn-induced male mice; experiment: Pole test, AAV-αSyn-induced PD model mice; assay type: in vivo, mouse; conditions: αSynWT and αSynA53T mice; CQ 40, 4A7C-301 5 mg/kg/day i.p.
Excerpt: as §1
Mice were trained to descend a vertical metal rod wrapped with rough tape (80 cm high, 12 mm diameter) once per day for 2 days, and then the baseline was measured before the pole test (3 days before the MPTP injection or the first pole test at week 2). Mice were placed head-upward on the pole and total descent time was recorded.

[4] = test system: AAV-αSyn-induced male mice; experiment: Dopamine ELISA in SN and STR, AAV-αSyn-injected mice; assay type: in vivo, mouse; conditions: for DA levels in the SN and STR (in words): αSynWT-mice
Excerpt: as §1
For MPTP-induced mice, the left hemisphere of each group (n = 5) was used for analysis and compared to the vehicle-treated group (VEH). For AAV-αSyn-injected mouse model, the viral vector injected side (left hemisphere; ipsilateral) of each group (n = 3) was compared to the non-injected side (right hemisphere; contralateral).

[5] = Fig. S3f, MPP+, Control, CQ 100 µM, 4A7C-301 1 µM
[6] = Fig. S3f, MPP+, Nurr1 KD, CQ 100 µM, 4A7C-301 1 µM
[7] = Fig. S3f, MPP+, Nurr1 OE, CQ 100 µM, 4A7C-301 1 µM
[8] = Supplementary Figure S10e, αSynA53T
[9] = Supplementary Figure S10e, αSynWT
[10] = Supplementary Figure S10f, αSynA53T
[11] = Supplementary Figure S10f, αSynWT

Structure (SMILES)	Lysosomal pH (N27-A cells)	loss of TH+ and NeuN+ neurons and TH+ fibers (in words) [1]	phosphorylated αSyn (αSynS129) in SN (in words) ([2]; αSynWT-mice)	LDH release (%) (MN9D cells; [5])	LDH release (%) (MN9D cells; [6])	LDH release (%) (MN9D cells; [7])	LDH release (%) (MN9D cells; Fig. S3d, with MPP+, 1 µM)	LDH release (%) (MN9D cells; Fig. S3d, with MPP+, 5 µM)	LDH release (%) (MN9D cells; Fig. S3d, with MPP+, 10 µM)	Iba-1+ cells in STR (% of control) (MPTP-induced male mice)	Iba-1+ cells in SNpc (% of control) (MPTP-induced male mice)	motor deficits, pole test (in words) [3]	DA level (% of contralateral side) [4, 8]	DA level (% of contralateral side) [4, 9]	DA level (% of contralateral side) [4, 10]	DA level (% of contralateral side) [4, 11]	DA levels in the SN and STR (in words) [4]	also measured
CCN1CCN(c2cc(N3CCN(CC)CC3)nc(NCCNc3ccnc4cc(Cl)ccc34)n2)CC1 [4A7C-301, N^1-(4,6-bis(4-ethylpiperazin-1-yl)pyrimidin-2-yl)-N^2-(7-chloroquinolin-4-yl)ethane-1,2-diamine]	3.797 and 3.992 and 4.709 and 4.807 and 4.383 and 3.8621 and 3.96 and 4.416 and 4.97 and 4.481 and 4.351 and 4.742 and 4.221 and 3.927	partially prevented	significantly diminished	38.8915% and 36.4082% and 36.6047% and 41.8443%	55.7866% and 55.7395% and 56.0212% and 56.0866%	24.7388% and 23.725% and 24.6956% and 22.8802%	39.0016% and 38.0746% and 37.5724%	38.2677% and 37.7656% and 37.302%	35.5638% and 36.4136% and 37.4179%	125.5 % of control and 139.6 % of control and 120.61 % of control and 117.09 % of control and 138.52 % of control and 80.29 % of control and 135.9 % of control	160.25 % of control and 167.13 % of control and 152.39 % of control and 127.81 % of control and 217.28 % of control and 189.75 % of control and 198.6 % of control	improved motor deficits	52.259 % of contralateral side and 51.869 % of contralateral side and 51.727 % of contralateral side	78.777 % of contralateral side and 81.036 % of contralateral side and 79.879 % of contralateral side	55.117 % of contralateral side and 54.305 % of contralateral side and 55.007 % of contralateral side	77.063 % of contralateral side and 74.376 % of contralateral side and 74.108 % of contralateral side	significantly increased	loss of TH+ and NeuN+ neurons and fibers (in words) ([1]; αSynA53T-mice): significantly prevented; phosphorylated αSyn (αSynS129) in SN (in words) ([2]; αSynA53T-mice): significantly reduced; LDH release (%) (MN9D cells; Fig. S1g, with MPP+, conc. 0.1 µM, replicates): 41.8716% and 42.3575% and 42.6815%; LDH release (%) (MN9D cells; Fig. S1g, with MPP+, conc. 0.5 µM, replicates): 39.0371% and 39.604% and 39.28%; LDH release (%) (MN9D cells; Fig. S1g, with MPP+, conc. 1 µM, replicates): 37.6198% and 37.0529% and 37.2958%; LDH release (%) (MN9D cells; Fig. S1g, with MPP+, conc. 5 µM, replicates): 37.2149% and 37.0124% and 37.6198%; LDH release (%) (MN9D cells; Fig. S1g, with MPP+, conc. 10 µM, replicates): 36.486% and 37.8628% and 37.3363%; LDH release (%) (MN9D cells; Fig. S3d, with MPP+, 0.1 µM): 43.0575% and 41.9759% and 41.8986%; LDH release (%) (MN9D cells; Fig. S3d, with MPP+, 0.5 µM): 40.7398% and 41.2806% and 41.0489%; concentration of maximal efficiency, times lower than CQ (MN9D cells; MN9D cells, MPP+-induced cytotoxicity): ~ 20 times; Iba-1+ microglia in STR and SN (in words) (MPTP-induced male mice; MPTP mice): markedly reduced; DA levels (in words) ([4]; αSynA53T-mice): increased
CCN(CC)CCCC(C)Nc1ccnc2cc(Cl)ccc12 (stereo not shown) [CQ, chloroquine]	4.937 and 5.068 and 5.133 and 5.85 and 5.426 and 5.296 and 5.622 and 4.4486 and 5.263 and 4.481 and 5.947	partially prevented	significantly diminished	40.5948% and 42.0584% and 38.5456% and 42.2156%	55.6098% and 56.4684%	26.1572% and 27.9568% and 27.0629%	41.5124% and 43.1347% and 42.8643%	41.2806% and 41.8214% and 41.3965%	39.6197% and 38.7699% and 40.5081%	156.51 % of control and 147.74 % of control and 143.13 % of control and 144.76 % of control and 151.54 % of control and 162.57 % of control and 147.11 % of control and 149.46 % of control	165.17 % of control and 275.28 % of control and 277.25 % of control and 239.89 % of control and 248.74 % of control and 269.38 % of control and 278.23 % of control	partial recovery	32.648 % of contralateral side and 32.350 % of contralateral side and 33.119 % of contralateral side	73.112 % of contralateral side and 72.962 % of contralateral side and 71.012 % of contralateral side	33.096 % of contralateral side and 33.011 % of contralateral side and 33.320 % of contralateral side	70.155 % of contralateral side and 68.851 % of contralateral side and 68.899 % of contralateral side	significantly increased	lysosomal pH (in words) (N27-A cells; N27-A, BafA1 10 nM, CQ 20 µM, 4A7C-301 1 µM): significantly increased; LDH release (%) (MN9D cells; Fig. S3d, with MPP+, 50 µM): 38.5767% and 38.7312% and 38.1518%; LDH release (%) (MN9D cells; Fig. S3d, with MPP+, 100 µM): 37.1862% and 37.0703% and 38.1905%
